# Measured values taken from article PMC6130518, “Investigation of the effective components of the flowers of Trollius chinensis from the perspectives of intestinal bacterial transformation and intestinal absorption” (Pharmaceutical Biology, 2017).
# “Also recorded” adds a separate entry of the source.
# Tests used:
# [1] = system: everted gut sacs (jejunum); test: Absorption experiment with everted gut sacs; details: for After transported with everted gut sacs: intestinal bacterial transformed AEOF; for transport percentage: Everted gut sacs, AP→BL
# Caco-2 cell monolayers = test: Transport experiment with Caco-2 cell monolayers; details: for After transported with Caco-2 cell monolayers: intestinal bacterial transformed AEOF; for transport percentage: Caco-2 cell monolayers
# Protocol: (§1) The Caco-2 cells were cultured in the culture medium consisting of Dulbecco’s Modified Eagle Medium (DMEM, Gibco Inc., Grand Island, CA)-fetal bovine serum (FBS, Gibco Inc., Grand Island, CA)-nonessential amino acids (NEAA, Corning Costar, Cambridge, MA)-‘penicillin-streptomycin’ (Corning Costar, Cambridge, MA) (100:10:1:1, v/v/v/v) in 25 cm^2 flasks, which were incubated in 5% CO2 and constant temperature (37 °C) and humidity in the incubator. The culture medium was replaced every 2 or 3 days, and the cells were split 1:2 or 1:3 to conduct passage when they reached 80% confluence.
# (§2) About 1.5 mL of the culture medium was added into the basal (BL) side of each well of the 12-well Transwell plates (insert diameter 12 mm, pore size 3.0 μm, membrane growth area 1.12 cm^2, Corning Costar, Cambridge, MA), and 0.5 mL of the Caco-2 cell suspension at the density of 2.0 × 10^5 cells/mL was seeded into the apical (AP) side of each insert. The cells were incubated in 5% CO2 and constant temperature (37 °C) and humidity in the incubator. The culture medium in both AP and BL sides was replaced every other day in the first week, then that in AP side was replaced every day and that in BL side was replaced every other day. The cells would differentiate and form a confluent monolayer. The integrity and viability of the cell monolayers were evaluated by measuring transepithelial electrical resistance (TEER) values in the culture medium at 37 °C using a Millicell®-ERS system (Millipore Corp., Bedford, MA), and only the inserts with the TEER above 600 Ω/cm^2 on day 21 were selected to perform the transport experiment.
# (§3) About 200 μL of the solution in the receiving chambers was collected at 30, 60, 90, 120, 150, and 180 min, respectively, and then the same volume of HBSS was added. All samples were stored at −20 °C and filtered through a 0.45 μm membrane filter for HPLC analysis.
# (§4) The HPLC conditions used for the analysis of the intestinal bacterial transformed AEOF before and after transport experiment was the same as above.
# (§5) The transport percentage (%) was calculated using the formula transport percentage (%) = dQ/(C0 × V) × 100, wherein, V (mL) represented the volume of the donor compartment.
# [2] = system: activated intestinal bacteria; test: Intestinal bacterial transformation of AEOF; assay type: in vitro ADME, human; details: for After transformed by intestinal bacteria / Before transformed by intestinal bacteria: content in the extract; for transformation by intestinal bacteria (in words): in AEOF 15.0, 30.0, 60.0 mg/mL, up to 72 h, single person derived- or multiple people-derived intestinal bacteria; for time in which completely transformed by intestinal bacteria: in AEOF, isoquercetin to quercetin, trollioside to proglobeflowery acid
# Protocol: Each 3 g of fresh feces from 3 healthy men and 3 healthy women of 23–25 years old was suspended in 200 mL of general anaerobic medium (GAM, including L-cystine hydrochloride, soluble starch, pepsin, tryptone, peptone, soy peptone, serum powder, yeast extract, beef extract, and beef liver extract powder purchased from Beijing Aoboxing Biotechnology Co., Ltd, Beijing, China) broth prepared as per a literature (Yang & Xu [2011]), respectively, and cultured in an anaerobic incubator (Shanghai Cimomedical Appliance Co., Ltd., Shanghai, China) at 37 °C for 24 h (Tsuchihashi et al. [2009]). […] Each 100 μL of the activated intestinal bacteria from the 6 volunteers were added into 11.4 mL of GAM, mixed adequately, and incubated in the same conditions as previously to obtain the mixture of activated intestinal bacteria. About 0.4513, 0.9026, and 1.8052 g of AEOF were dissolved in 30 mL of GAM on a super clean bench (Beijing Great Wall Air Purification Co. Ltd., Beijing, China), respectively, to generate the experimental groups. Then, the triplicate GAM containing AEOF was divided into 24 screw-cap test tubes, and each screw-cap test tube had 3 mL of the GAM and 100 μL of the activated intestinal bacteria and the mixture of activated intestinal bacteria, respectively. They were incubated under the same condition, and the test tubes of each concentration in triplicate were removed from the anaerobic incubator at 0, 2, 4, 6, 12, 24, 48, and 72 h. About 100 μL of the bacterial suspension was replaced with GAM to obtain the control group. The GAM absent of the AEOF was used as the blank group. […] About 300 μL of the supernatant was collected, filtered through a 0.45 μm membrane filter, and stored at −20 °C before HPLC analysis.
# The HPLC analysis was performed using a Waters 1500 series (Waters Business Operations, Milford, MA) equipped with a 1525 binary HPLC pump, an on-line degasser, a manual injector and a 2489 UV/Visible detector. […] The temperature was set at 35 °C and the UV detecting wavelengths were 254 and 365 nm. The mobile phase consisted of acetonitrile (HPLC grade, Fisher Co., Pittsburgh, PA) (A) and 1.0% acetic acid (Beijing Chemical Works, Beijing, China) in purified water (v/v) (B), and the gradient elution program was as follows: 5–10% A (0–5 min), 10–20% A (5–10 min), 20–25% A (10–22 min), 25–40% A (22–35 min), 40–50% A (35–40 min), and 50–5% A (40–42 min) at a flow rate of 1.0 mL/min. The volume injected was 5 μL.
# [3] = previous study, ref Liu et al. [2015]; cited from earlier work
# [4] = Absorption experiment with everted gut sacs; details: Sprague-Dawley, rat
# [5] = Transport experiment with Caco-2 cell monolayers; details: human; for Papp at 180 min, 10 mg/mL / Papp at 180 min, 20 mg/mL / Papp at 180 min, 30 mg/mL: Caco-2, Papp, Caco-2 cell monolayers; for Papp at 180 min, 10 mg/mL: extract 10 mg/mL; for Papp at 180 min, 20 mg/mL: extract 20 mg/mL; for Papp at 180 min, 30 mg/mL: extract 30 mg/mL
# Protocol: as §1, §2, §3, §4, §5
# [6] = first of three lines per compound (lowest concentration; 10, 20, 30 mg/mL)
# [7] = second of three lines per compound (middle concentration, not given)
# [8] = third of three lines per compound (highest concentration, not given)
# [9] = first of three lines per compound (lowest extract concentration)
# [10] = first of three lines per compound (lowest extract concentration; AEOF 15, 30, 60 mg/mL)
# [11] = second of three lines per compound (middle extract concentration, not given)
# [12] = third of three lines per compound (highest extract concentration, not given)
Compound,"After transported with everted gut sacs [1, 6]","After transported with everted gut sacs [1, 7]","After transported with everted gut sacs [1, 8]",After transported with Caco-2 cell monolayers (Caco-2 cell monolayers; [6]),After transported with Caco-2 cell monolayers (Caco-2 cell monolayers; [7]),After transported with Caco-2 cell monolayers (Caco-2 cell monolayers; [8]),"After transformed by intestinal bacteria [2, 9]","Before transformed by intestinal bacteria [2, 10]","After transformed by intestinal bacteria [2, 11]","Before transformed by intestinal bacteria [2, 11]","After transformed by intestinal bacteria [2, 12]","Before transformed by intestinal bacteria [2, 12]",transformation by intestinal bacteria (in words) [2],time in which completely transformed by intestinal bacteria [2],absorption mechanism [3],transport percentage ([1]; extract 10 mg/mL),transport percentage ([1]; extract 20 mg/mL),transport percentage ([1]; extract 30 mg/mL),"Papp at 180 min, 10 mg/mL [4]","Papp at 180 min, 20 mg/mL [4]",also measured
COc1cc(C(=O)O)cc(CC=C(C)C)c1OC1OC(CO)C(O)C(O)C1O (centres unmarked) [trollioside],0.00 µg/mL,0.00 µg/mL,0.00 µg/mL,0.00 µg/mL,0.00 µg/mL,0.00 µg/mL,0.00 µg/mL,5.62 µg/mL,0.00 µg/mL,12.76 µg/mL,0.00 µg/mL,26.84 µg/mL,completely transformed,≤ 24 h,,,,,,,
O=c1cc(-c2ccc(O)c(O)c2)oc2c(C3OC(CO)C(O)C(O)C3OC3OC(CO)C(O)C(O)C3O)c(O)cc(O)c12 [2″-O-β-L-galactopyranosylorientin],1.57 µg/mL,1.69 µg/mL,5.38 µg/mL,0.41 µg/mL,1.44 µg/mL,4.78 µg/mL,28.06 µg/mL,26.86 µg/mL,56.34 µg/mL,56.18 µg/mL,100.57 µg/mL,104.39 µg/mL,not changed,,transporter mediated efflux in addition to passive diffusion,8.76%,4.23%,9.25%,41.1 ± 2.5 ×10⁻⁶ cm/s,22.3 ± 4.1 ×10⁻⁶ cm/s,"Papp at 180 min, 30 mg/mL [4]: 46.7 ± 2.5 ×10⁻⁶ cm/s; Papp at 180 min, 10 mg/mL ([5]; AP→BL): 11.1 ± 0.9 ×10⁻⁶ cm/s; Papp at 180 min, 10 mg/mL ([5]; BL→AP): 21.6 ± 2.4 ×10⁻⁶ cm/s; Papp at 180 min, 20 mg/mL ([5]; AP→BL): 19 ± 0.9 ×10⁻⁶ cm/s; Papp at 180 min, 20 mg/mL ([5]; BL→AP): 34.9 ± 0.9 ×10⁻⁶ cm/s; Papp at 180 min, 30 mg/mL ([5]; AP→BL): 40.7 ± 4 ×10⁻⁶ cm/s; Papp at 180 min, 30 mg/mL ([5]; BL→AP): 41.7 ± 2.8 ×10⁻⁶ cm/s; transport percentage (Caco-2 cell monolayers; extract 10 mg/mL, AP→BL): 13.41%; transport percentage (Caco-2 cell monolayers; extract 10 mg/mL, BL→AP): 8.72%; transport percentage (Caco-2 cell monolayers; extract 20 mg/mL, AP→BL): 22.93%; transport percentage (Caco-2 cell monolayers; extract 20 mg/mL, BL→AP): 14.08%; transport percentage (Caco-2 cell monolayers; extract 30 mg/mL, AP→BL): 49.29%; transport percentage (Caco-2 cell monolayers; extract 30 mg/mL, BL→AP): 16.83%; transformation by intestinal bacteria (in words) ([2]; listed as 2″-O-β-L-Galactopyranosylorientin): not transformed"
O=c1c(O[C@@H]2O[C@H](CO)[C@@H](O)[C@H](O)[C@H]2O)c(-c2ccc(O)c(O)c2)oc2cc(O)cc(O)c12 [isoquercetin],0.00 µg/mL,0.00 µg/mL,0.00 µg/mL,0.00 µg/mL,0.00 µg/mL,0.00 µg/mL,0.00 µg/mL,0.37 µg/mL,0.00 µg/mL,0.56 µg/mL,0.00 µg/mL,1.38 µg/mL,completely transformed,≤ 24 h,,,,,,,
O=c1cc(-c2ccc(O)c(O)c2)oc2c([C@@H]3O[C@H](CO)[C@@H](O)[C@H](O)[C@H]3O)c(O)cc(O)c12 [orientin],0.32 µg/mL,0.49 µg/mL,1.04 µg/mL,0.33 µg/mL,0.35 µg/mL,0.82 µg/mL,11.83 µg/mL,10.27 µg/mL,20.38 µg/mL,20.33 µg/mL,43.42 µg/mL,43.87 µg/mL,not transformed; also recorded: not changed,,transporter mediated efflux in addition to passive diffusion,4.67%,3.50%,6.75%,21.9 ± 2.4 ×10⁻⁶ cm/s,18.5 ± 0.1 ×10⁻⁶ cm/s,"Papp at 180 min, 30 mg/mL [4]: 34 ± 3.4 ×10⁻⁶ cm/s; Papp at 180 min, 10 mg/mL ([5]; AP→BL): 25.3 ± 0.3 ×10⁻⁶ cm/s; Papp at 180 min, 10 mg/mL ([5]; BL→AP): 19.2 ± 1.4 ×10⁻⁶ cm/s; Papp at 180 min, 20 mg/mL ([5]; AP→BL): 13.5 ± 0.2 ×10⁻⁶ cm/s; Papp at 180 min, 20 mg/mL ([5]; BL→AP): 11.8 ± 0.2 ×10⁻⁶ cm/s; Papp at 180 min, 30 mg/mL ([5]; AP→BL): 19.5 ± 1.4 ×10⁻⁶ cm/s; Papp at 180 min, 30 mg/mL ([5]; BL→AP): 16.3 ± 0.6 ×10⁻⁶ cm/s; transport percentage (Caco-2 cell monolayers; extract 10 mg/mL, AP→BL): 30.53%; transport percentage (Caco-2 cell monolayers; extract 10 mg/mL, BL→AP): 7.73%; transport percentage (Caco-2 cell monolayers; extract 20 mg/mL, AP→BL): 16.39%; transport percentage (Caco-2 cell monolayers; extract 20 mg/mL, BL→AP): 4.76%; transport percentage (Caco-2 cell monolayers; extract 30 mg/mL, AP→BL): 23.54%; transport percentage (Caco-2 cell monolayers; extract 30 mg/mL, BL→AP): 6.56%"
"CC(C)NCC(O)COc1cccc2ccccc12 (centres unmarked) [propranolol, reference compound]",,,,,,,,,,,,,,,,,,,,,"Papp at 180 min ([5]; Caco-2, apparent permeability coefficient (Papp), reference compounds, validation of Caco-2 monolayers): 41.2 ×10⁻⁶ cm/s"
O=c1c(O)c(-c2ccc(O)c(O)c2)oc2cc(O)cc(O)c12 [quercetin],0.00 µg/mL,0.00 µg/mL,0.00 µg/mL,0.00 µg/mL,0.00 µg/mL,0.00 µg/mL,2.12 µg/mL,1.56 µg/mL,4.02 µg/mL,3.25 µg/mL,8.45 µg/mL,7.38 µg/mL,not transformed,,,,,,,,
